# From paper PMC6268252, “Synthesis and Antiviral Activity of Conformational Analogues of Leucamide A” (Molecules, 2012)
# Where two headings read alike, the source gives them in different places.
# Tests used:
# [1] = test system: Influenza A virus H3N2 (A3 China/15/90); assay: Inhibition of influenza A virus replication (virus-induced CPE) in MDCK cells; type: cell-based; conditions: influenza A H3N2 (A3 China/15/90); for activity against influenza A virus (in words): MDCK cells; for IC50: concentration required to reduce virus-induced CPE in MDCK cells by 50%
# in vitro = conditions: dog
# [2] = test system: Influenza A virus H3N2 (A3 China/15/90); set-up: method as in PMID 16183283; conditions: previously reported active compound; read-out: IC50 against influenza A virus; cited from earlier work
# [3] = test system: influenza A virus, herpes simplex type 2 virus (HSV2), hepatitis B virus (HBV); set-up: method as in PMID 16183283, PMID 18663717; conditions: reported before; cited from earlier work
# several tumor cell lines = test system: several tumor cell lines; set-up: method as in PMID 12098321; conditions: cited from earlier work
structure (smiles),measurement,setting,value
Cc1oc2nc1C(=O)N[C@@H](C)c1nc(co1)C(=O)NCC(=O)N[C@@H](C(C)C)c1nc-2cs1 [Compound 2],activity against influenza A virus (in words),[1],inactive
same,CC50,in vitro,> 273 µM
Cc1oc2nc1C(=O)N[C@@H](C)c1nc(co1)C(=O)NCCC(=O)N[C@@H](C(C)C)c1nc-2cs1 [Compound 3],IC50,[1],163 µM
same,CC50,in vitro,> 265 µM
Cc1oc2nc1C(=O)N[C@@H](C)c1nc(co1)C(=O)NCCCC(=O)N[C@@H](C(C)C)c1nc-2cs1 [Compound 4],IC50,[1],115 µM
same,CC50,in vitro,595 µM
Cc1oc2nc1C(=O)N[C@@H](C)c1nc(co1)C(=O)NCCCCC(=O)N[C@@H](C(C)C)c1nc-2cs1 [Compound 5],IC50,[1],258 µM
same,CC50,in vitro,578 µM
Cc1oc2nc1C(=O)N[C@@H](C)c1nc(co1)C(=O)NCCCCCC(=O)N[C@@H](C(C)C)c1nc-2cs1 [Compound 6],IC50,[1],41 µM
same,CC50,in vitro,374 µM
COc1ccccc1C(=O)N[C@H](c1nc(-c2nc(C(=O)O)c(C)o2)cs1)C(C)C [Compound 10],IC50,[2],70 µM
Cc1oc2nc1C(=O)N[C@@H](C)c1nc(co1)C(=O)N[C@@H](CC(C)C)C(=O)N1CCC[C@H]1C(=O)N[C@@H](C(C)C)c1nc-2cs1 [Leucamide A],activity against influenza A virus (in words),[1],inactive
same,antiviral activity (in words),[3],did not show any antiviral activity
same,cytotoxicity toward tumor cell lines (in words),several tumor cell lines,moderately cytotoxic
same,CC50,in vitro,787 µM
"NC(=O)c1ncn([C@@H]2O[C@H](CO)[C@@H](O)[C@H]2O)n1 [Ribavirin, reference compound]",IC50,[1],16 µM
same,CC50,in vitro,> 8200 µM
